Measured values: US11419859B2, “Combination therapy for treating malignancies” (Servier Pharmaceuticals LLC, priority 2015, dated 2022)

Assay: blood bilirubin in subjects with a UGT1A1 mutation receiving COMPOUND 1
Type: in vivo, human
Text: All toxicity≥Grade 3 not due to underlying AML or complications of the disease or myelosuppressive treatment, with the exception of ≥Grade 3 blood bilirubin increases in subjects with a UGT1A1 mutation receiving COMPOUND 1.

CC(C)(O)CNc1nc(Nc2ccnc(C(F)(F)F)c2)nc(-c2cccc(C(F)(F)F)n2)n1 [COMPOUND 1, 2-methyl-[(4-[6-(trifluoromethyl)pyridin-2-yl]-6-{[2-(trifluoromethyl)pyridin-4-yl]amino}-1,3,5-triazin-2-yl)amino]propan-2-ol]
blood bilirubin: isolated blood bilirubin increases have been seen
